Test results reported in a melting point compilation (Tetko et al.; mined from patent text by program, amines drawn as free bases though some values may be those of a salt).
Non-standard residues stand in square brackets, D forms with d. Residues, ends and D or L forms follow the SMILES beside them. *: point of attachment. pGlu = O=C1CC[CH](C(=O)O)N1; Morpholide = C1CN(*)CCO1; Thz = O=C(O)[CH]1CSCN1

Structure (SMILES) | melting point [°C]
NCC1Cc2cc(F)cc(-c3cc(Cl)ccc3Cl)c2O1 (stereo not given) | 165 to 166
CNC(Cc1ccc(Cl)cc1[N+](=O)[O-])c1ccsc1C (stereo not given) | 44 to 46
C=CCC(C)(C)C(=O)O[C@H]1C[C@H](O)C=C2C=C[C@H](C)[C@H](CCC3CC(O)CC(=O)O3)[C@H]21 (stereo not given in full) | 141 to 142
CCCCCCCCCCCC(=O)OC[C@H]1OCC(=NOCc2ccccc2)[C@@H](O)[C@@H]1O | 45 to 50
COCN1c2cc(C(=O)OC)ccc2Sc2nccnc21 | 151 to 152
CC[C@@H](C)[C@H](NC(=O)NCCNC(=O)OC(C)(C)C)C(=O)OC | 86 to 89
C=CCOc1ccc(C(=O)C=Cc2cc(OC)cc(OC)c2C)cc1 | 123 to 124
O=C(CCc1ccccc1)NC(NC(=S)Nc1cccc([N+](=O)[O-])c1)C(Cl)(Cl)Cl (stereo not given) | 171 to 173
CCCCCCCCCCCCOC(=O)C(N)CCCNC(=N)N (stereo not given) | 125 to 130
CC1=CC(OC(=O)c2ccc([N+](=O)[O-])cc2Cl)C(O)C(C)(C)CC1=O (stereo not given) | 108 to 110
COc1ccc(Cn2c(=O)c(C(=O)NC3CCCCC3)c(O)c3cccnc32)cc1 | 149
COc1cncnc1N1CCN(C(=O)OC(C)(C)C)CC1C (stereo not given) | 70 to 72
CON=C(Cl)c1ccccc1S(=O)(=O)NC(=O)Nc1nc(C)nc(OC)n1 | 182 to 184
COc1cc2c(cc1C(=O)O)OCO2 | 151
CC(=O)Nc1ccc(NCCSC#N)c([N+](=O)[O-])c1 | 168
N#Cc1cccc2nc(CCC#Cc3ccccn3)oc12 | 126
O=C1CCC(C(=O)N2CSCC2C(=O)N2CCOCC2)N1 (stereo not given) ([pGlu]-[Thz]-Morpholide; configuration not given here) | 187 to 188
CN1C(O)=C(C(=O)Nc2ccc(Cl)cc2)c2cscc2S1(=O)=O | 154 to 156
CCOC(=O)C(CC(=O)OC1CC2CCC1(C)C2(C)C)(NC(=O)OCc1ccccc1)C(N)=O (stereo not given) | 105 to 106
Cc1cccc(C)c1C(=Nc1ccc(F)cc1)NC(=NC1CCCCC1)N1CCCCC1C (stereo not given) | 167 to 168

Structure (SMILES) | melting point [°C]
COC(=O)c1cc(C(=O)O)cc(C(=O)OC)c1C(=O)OC | 143 to 144
CCOC(=O)c1cn(C2CC2)c2c(F)c(N3CCN(C)CC3)c(F)c([Si](C)(C)C)c2c1=O | 231 to 233
Nc1nc(Oc2ccc(C(F)(F)F)cc2Cl)ccc1[N+](=O)[O-] | 80 to 84
CCCS(=O)(=O)NC(=N[N+](=O)[O-])NCc1cnc(Cl)s1 | 105 to 107
N#Cc1cccc(C2=NNCCC2n2cc(Cl)cn2)c1 (stereo not given) | 171
O=C(O)c1cn(CC(F)(F)F)c2c(F)c(F)c(F)cc2c1=O | 205 to 207
O=C(O)CCCCCCCCc1ccc(Cl)cc1 | 73 to 75
Cc1cccc(C)c1C(=O)NC(C)(C)C | 134 to 136
NN=c1[nH]c2ccc(Br)cc2cc1[N+](=O)[O-] | 187
O=C(O)C(=O)c1ccc(OCCOc2ccc(C(F)(F)F)cc2)cc1 | 121 to 123
CCC(C)Nc1nc2ncnn2c2c1cnc1c2cnn1CC (stereo not given) | 228 to 230
CC(ON=C(C(=O)O)c1ccc(O)c(Cl)c1)C(=O)OC(C)(C)C (stereo not given) | 148 to 151
CCCCc1nc2cc(C(=O)OC)ccc2[nH]1 | 108 to 110
Fc1cccc2nc(S)sc12 | 193
CC(C)N(C(C)C)P(N)(N)=S | 93 to 98
O=C(NCC1CC1)NCC1CC1 | 127 to 130
CCCCNc1nc2cc(C)nn2c2c1cnc1c2cnn1CC | 160 to 162
CCCCCCCCCCC(=O)NCc1cccc2c1C(=O)N(C1CCC(=O)NC1=O)C2=O (stereo not given) | 138 to 139
CCOC(=O)c1cnc2c(c(C)nc3cc(C)nn32)c1NC | 208 to 210
CCCCCCn1ccc(NC(C)=O)nc1=O | 129 to 130

Other lines, results leading:

melting point [°C] | Structure (SMILES)
88.5 to 90 | O[C@@H]1CN(Cc2ccccc2)C[C@H]1Oc1ccccc1 (relative stereo)
211 to 213 | O=C(O)c1cc(Cl)c(OCc2ccccc2)c(Cl)c1
244 to 246 | Cc1ccc(S(=O)(=O)n2ccc3c(-c4c(-c5ccc(F)cc5)nc5ccc(Cl)nn45)ccnc32)cc1
214 to 215 | Cc1nc(-c2ccc3ccc(Cn4c(C(C)C)nc5cc[nH]c(=O)c54)cc3c2)no1
255 to 258 | Cc1cc(O)c2cccc(OCc3c(Cl)ccc([N+](=O)[O-])c3Cl)c2n1
220 to 222 | Cc1ccccc1C(=O)Nc1ccc(C(=O)N2CCCC(OCC(=O)O)c3cc(Cl)ccc32)cn1 (stereo not given)
177 to 178 | Cc1noc(-c2ccc(CN3C(=O)C4(COc5cc6c(cc54)OCCO6)c4ccccc43)cc2)n1 (stereo not given)
201 to 203 | CC1(C)Oc2ccc(C#N)cc2[C@@H](NC(=O)Nc2ccc3c(c2)CN(C(=O)OCC(Cl)(Cl)Cl)C3)[C@@H]1O
195 to 196 | COc1cc(Cn2cnc3c(-c4ccco4)ncnc32)cc(OC)c1OC
67 to 71 | COC(=O)c1ccc(OC)nc1SCc1ccccc1
182 to 184 | Oc1ccc2oc(-c3ccc(O)c4ccccc34)nc2c1
97 to 98 | Cc1cn(-c2ccc(F)cc2)c2ccc(Br)cc12
214 to 217 | Cc1c(C=C2CCc3cc4ccccc4n3C2=O)ncn1C(c1ccccc1)(c1ccccc1)c1ccccc1
69 to 77 | COC(=O)c1c(F)cc(OCCNC(=O)C2Cc3ccccc3N2S(=O)(=O)c2ccc(-c3ccc(F)cc3F)cc2)cc1F (stereo not given)
89 to 91 | Cc1cc(C)cc(C(OC(C)C(c2ccccc2)c2ccccc2)N(C)C(=O)c2ccccc2)c1 (stereo not given)
122 to 124 | COC(=O)CCCc1cc2nc(Cl)ccc2n1S(=O)(=O)c1ccc(-c2ccccc2)cc1
126 to 129 | Nc1sc2c(c1C(=O)c1cc3ccccc3o1)CCC2
185 to 190 | OCc1cc2cccc3cc(-c4ccc(O)cc4)c1n23
80 to 86 | Cc1ccc2oc(NC(CC3CCCCC3)c3ccccn3)nc2c1 (stereo not given)
81 to 83 | c1nc(CSCCc2ccc3c(c2)OCO3)c[nH]1
216 to 217 | C=CCN1C(=O)C2=C(c3ccccc3)N(CC=C)C(=O)C2=C1c1ccccc1
198 to 200 | CC(=O)NCC1CN(c2ccc(-n3cccc3)c(F)c2)C(=O)O1 (stereo not given)
135 to 137 | CC(C)(C)OC(=O)N1CCN(c2ccc(S(=O)(=O)c3ccccc3)c(N)c2)CC1
209 | Cc1ccc(Nc2ncc(C#N)c(-c3ccc(C(C)(C)N)cc3)n2)cc1F
179 to 180 | Clc1cccc(-c2n[nH]cc2-c2ccnc(NCc3ccccc3)c2)c1
125 to 126 | O=C1Cc2ccccc2Sc2cc(Cl)c(F)cc21
205 to 207 | Cc1ccc(-n2nc(C(C)(C)C)cc2NC(=O)Nc2ccc(OCCCc3ccncc3)c3ccccc23)cc1
181 to 182 | COc1cc(Oc2cccc(C(F)(F)F)c2)nc(C(=O)NN=C(C)c2ccccc2)c1
95 to 97 | Nc1sc2c(c1C(=O)c1ccc3ccccc3c1)CCCC2
74 to 75 | CCOCc1c2ccccc2cc2ccccc12
